Reference: ChEMBL document CHEMBL6177998, “Rational Design of Dual Degraders by Incorporating Molecular Glue Structural Features into PROTAC Degraders” (J Med Chem, 2025)
Activity calls are given as the source filed them. The calls are words filed in the database; no cut-off is given here.

Legend:
[1] = biological target: T1, Protein cereblon/Eukaryotic peptide chain release factor GTP-binding subunit ERF3A (Homo sapiens, UniProt Q96SW2+P15170); test: Molecular glue activity at CRBN/GSPT1 in human 22Rv1 cells assessed as induction of GSPT1 degradation at 20 nM incubated for 18 hrs by Western blot analysis (reference value: 0 %); type: cell-based
[2] = biological target: T2, Protein cereblon/Androgen receptor (Homo sapiens, UniProt P10275+Q96SW2); test: PROTAC activity at CRBN/AR in human 22Rv1 cells assessed as induction of AR degradation at 50 uM preincubated with thalidomide followed by compound addition and measured after 12 hrs by Western blot analysis; type: cell-based
[3] = biological target: T2, Protein cereblon/Androgen receptor; test: PROTAC activity at CRBN/AR in human VCaP cells assessed as induction of AR degradation at 50 nM preincubated with MLN4924 followed by compound addition and measured after 12 hrs by Western blot analysis; type: cell-based
[4] = biological target: T1, Protein cereblon/Eukaryotic peptide chain release factor GTP-binding subunit ERF3A; test: Molecular glue activity at CRBN/GSPT1 in human 22Rv1 cells assessed as induction of GSPT1 degradation at 20 nM incubated for 6 hrs by Western blot analysis (reference value: 0 %); type: cell-based
[5] = biological target: T1, Protein cereblon/Eukaryotic peptide chain release factor GTP-binding subunit ERF3A; test: Molecular glue activity at CRBN/GSPT1 in human VCaP cells assessed as induction of GSPT1 degradation at 20 nM by Western blot analysis; type: cell-based; conditions: time 1-36 hrs
[6] = biological target: T1, Protein cereblon/Eukaryotic peptide chain release factor GTP-binding subunit ERF3A; test: Molecular glue activity at CRBN/GSPT1 in human 22Rv1 cells assessed as induction of GSPT1 degradation at 50 nM preincubated with MLN4924 followed by compound addition and measured after 12 hrs by Western blot analysis; type: cell-based
[7] = Selectivity ratio of IC50 for antiproliferative activity against AR-independent human DU-145 cells assessed as cell growth inhibition to IC50 for antiproliferative activity against AR-dependent human VCaP cells assessed as cell growth inhibition; type: functional
[8] = biological target: Protein cereblon/Zinc finger protein Aiolos (Homo sapiens) (UniProt Q96SW2+Q9UKT9); test: Molecular glue activity at CRBN/IKZF3 in human 22Rv1 cells assessed as induction of IKZF3 degradation at 1 uM incubated for 6 hrs by Western blot analysis; type: cell-based
[9] = biological target: T2, Protein cereblon/Androgen receptor; test: PROTAC activity at CRBN/AR in human 22Rv1 cells assessed as decrease in FKBP5 mRNA level at 1 to 3 nM incubated for 24 hrs by qRT-PCR analysis; type: cell-based; conditions: dose 1-3 nM
[10] = biological target: T2, Protein cereblon/Androgen receptor; test: PROTAC activity at CRBN/AR in human 22Rv1 cells assessed as induction of AR degradation at 20 nM incubated for 18 hrs by Western blot analysis (reference value: 0 %); type: cell-based
[11] = biological target: T2, Protein cereblon/Androgen receptor; test: Binding affinity to CRBN/AR in human 22Rv1 cells assessed as ternary complex formation incubated for 6 hrs by co-immunoprecipitation based Western blot analysis; type: cell-based
[12] = biological target: T2, Protein cereblon/Androgen receptor; test: PROTAC activity at CRBN/AR in human 22Rv1 cells assessed as induction of AR degradation at 20 nM incubated for 12 hrs by Western blot analysis (reference value: 0 %); type: cell-based
[13] = biological target: T1, Protein cereblon/Eukaryotic peptide chain release factor GTP-binding subunit ERF3A; test: Molecular glue activity at CRBN/GSPT1 in human 22Rv1 cells assessed as induction of GSPT1 degradation at 0.01 uM incubated for 6 hrs by Western blot analysis; type: cell-based
[14] = biological target: T2, Protein cereblon/Androgen receptor; test: PROTAC activity at CRBN/AR in human LNCaP cells assessed as decrease in TMPRSS2 protein level incubated for 24 hrs by Western blot analysis; type: cell-based; conditions: dose 1-100 nM
[15] = biological target: T2, Protein cereblon/Androgen receptor; test: PROTAC activity at CRBN/AR in human VCaP cells assessed as induction of AR degradation at 0.01 uM incubated for 24 hrs by Western blot analysis relative to control; type: cell-based
[16] = biological target: T1, Protein cereblon/Eukaryotic peptide chain release factor GTP-binding subunit ERF3A; test: Molecular glue activity at CRBN/GSPT1 in human 22Rv1 cells assessed as induction of GSPT1 degradation at 20 nM incubated for 24 hrs by Western blot analysis (reference value: 0 %); type: cell-based
[17] = system: Protein cereblon/Androgen receptor (Homo sapiens), P10275+Q96SW2 [UNDEFINED MUTATION]; test: PROTAC activity at CRBN/Androgen receptor splice variant 7 in human 22Rv1 cells assessed as induction of AR-V7 degradation at 20 nM incubated for 2 hrs by Western blot analysis (reference value: 0%); type: cell-based
[18] = biological target: T2, Protein cereblon/Androgen receptor; test: PROTAC activity at CRBN/AR in human 22Rv1 cells assessed as induction of AR degradation at 50 nM preincubated with MLN4924 followed by compound addition and measured after 12 hrs by Western blot analysis; type: cell-based
[19] = Cmax in male ICR mouse at 2 mg/kg, iv by LC-MS/MS analysis; type: ADME, organism-based; conditions: in vivo
LNCaP = test: Antiproliferative activity against AR-dependent human LNCaP cells assessed as cell growth inhibition incubated for 72 hrs by Celltiter-lumi luminescent cell viability assay; type: functional, cell-based
[20] = biological target: Protein cereblon/Zinc finger protein Helios (Homo sapiens) (UniProt Q96SW2+Q9UKS7); test: Molecular glue activity at CRBN/IKZF2 in human 22Rv1 cells assessed as induction of IKZF2 degradation at 1 uM incubated for 6 hrs by Western blot analysis; type: cell-based
[21] = biological target: T1, Protein cereblon/Eukaryotic peptide chain release factor GTP-binding subunit ERF3A; test: Molecular glue activity at CRBN/GSPT1 in human 22Rv1 cells assessed as induction of GSPT1 degradation at 0.1 uM incubated for 24 hrs by Western blot analysis relative to control; type: cell-based
[22] = system: Protein cereblon/Androgen receptor (Homo sapiens), P10275+Q96SW2 [UNDEFINED MUTATION]; test: PROTAC activity at CRBN/Androgen receptor splice variant 7 in human 22Rv1 cells assessed as induction of AR-V7 degradation at 50 nM preincubated with MG132 followed by compound addition and measured after 12 hrs by Western blot analysis; type: cell-based
[23] = Selectivity ratio of IC50 for antiproliferative activity against AR-independent human DU-145 cells assessed as cell growth inhibition to IC50 for antiproliferative activity against AR-dependent human LNCaP cells assessed as cell growth inhibition; type: functional
[24] = Cmax in male ICR mouse at 10 mg/kg, po by LC-MS/MS analysis; type: ADME, organism-based; conditions: in vivo
[25] = system: Protein cereblon/Androgen receptor (Homo sapiens), P10275+Q96SW2 [UNDEFINED MUTATION]; test: PROTAC activity at CRBN/Androgen receptor splice variant 7 in human VCaP cells assessed as induction of AR-V7 degradation at 50 nM preincubated with MLN4924 followed by compound addition and measured after 12 hrs by Western blot analysis; type: cell-based
CWR22R [26] = test: Cell cycle arrest in human 22Rv1 cells assessed as accumulation of cells at G1 phase at 10 nM incubated for 24 hrs by flow cytometric analysis (reference value: 49.7 %); type: functional
CWR22R [27] = test: Effect on androgen receptor splice variant 7 mRNA expression in human 22Rv1 cells at 1 to 10 nM incubated for 24 hrs by RT-PCR analysis; type: functional, cell-based; conditions: dose 1-10 nM
[28] = system: Protein cereblon/Androgen receptor (Homo sapiens), P10275+Q96SW2 [UNDEFINED MUTATION]; test: PROTAC activity at CRBN/Androgen receptor splice variant 7 in human 22Rv1 cells assessed as induction of AR-V7 degradation at 20 uM preincubated with EPI-002 for 4 hrs followed by compound addition and measured after 36 hrs by Western blot analysis; type: cell-based
[29] = system: Protein cereblon/Androgen receptor (Homo sapiens), P10275+Q96SW2 [UNDEFINED MUTATION]; test: Induction of AR-V7 degradation in human 22Rv1 cells transfected with CRBN siRNA at 30 nM incubated for 24 hrs by Western blot analysis; type: cell-based
22Rv1 = test: Induction of AR degradation in human 22Rv1 cells transfected with CRBN siRNA at 30 nM incubated for 24 hrs by Western blot analysis; type: cell-based

T1 sequence (P15170 whole entry, looked up): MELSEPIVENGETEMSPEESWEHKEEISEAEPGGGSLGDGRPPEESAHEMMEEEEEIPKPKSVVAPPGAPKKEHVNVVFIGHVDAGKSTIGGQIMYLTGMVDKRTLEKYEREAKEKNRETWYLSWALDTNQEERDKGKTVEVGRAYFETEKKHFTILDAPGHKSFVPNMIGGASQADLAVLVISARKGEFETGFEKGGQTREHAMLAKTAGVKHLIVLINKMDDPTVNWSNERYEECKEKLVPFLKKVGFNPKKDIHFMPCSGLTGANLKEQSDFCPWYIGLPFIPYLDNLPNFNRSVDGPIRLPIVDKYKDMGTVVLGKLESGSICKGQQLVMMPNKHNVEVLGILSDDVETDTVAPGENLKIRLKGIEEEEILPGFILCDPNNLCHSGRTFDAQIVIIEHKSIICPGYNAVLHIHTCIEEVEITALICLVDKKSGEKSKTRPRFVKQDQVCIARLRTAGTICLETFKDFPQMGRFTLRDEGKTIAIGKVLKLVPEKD
T1 sequence (Q96SW2 whole entry, looked up): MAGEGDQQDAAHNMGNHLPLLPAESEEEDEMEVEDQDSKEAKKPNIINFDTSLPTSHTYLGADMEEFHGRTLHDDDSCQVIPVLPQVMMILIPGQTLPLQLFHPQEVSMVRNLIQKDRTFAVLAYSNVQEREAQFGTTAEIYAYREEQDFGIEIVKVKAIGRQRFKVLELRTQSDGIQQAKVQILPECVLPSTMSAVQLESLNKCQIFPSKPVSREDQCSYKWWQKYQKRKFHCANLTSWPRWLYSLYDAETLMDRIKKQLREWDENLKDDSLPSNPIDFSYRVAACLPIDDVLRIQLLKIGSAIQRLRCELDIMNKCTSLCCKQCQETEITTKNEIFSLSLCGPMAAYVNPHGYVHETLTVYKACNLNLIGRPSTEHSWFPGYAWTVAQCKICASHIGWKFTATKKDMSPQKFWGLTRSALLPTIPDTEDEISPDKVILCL
Chain of Protein cereblon/Androgen receptor (Homo sapiens), P10275+Q96SW2 [UNDEFINED MUTATION] (P10275 whole entry, looked up, stated change not applied, canonical isoform): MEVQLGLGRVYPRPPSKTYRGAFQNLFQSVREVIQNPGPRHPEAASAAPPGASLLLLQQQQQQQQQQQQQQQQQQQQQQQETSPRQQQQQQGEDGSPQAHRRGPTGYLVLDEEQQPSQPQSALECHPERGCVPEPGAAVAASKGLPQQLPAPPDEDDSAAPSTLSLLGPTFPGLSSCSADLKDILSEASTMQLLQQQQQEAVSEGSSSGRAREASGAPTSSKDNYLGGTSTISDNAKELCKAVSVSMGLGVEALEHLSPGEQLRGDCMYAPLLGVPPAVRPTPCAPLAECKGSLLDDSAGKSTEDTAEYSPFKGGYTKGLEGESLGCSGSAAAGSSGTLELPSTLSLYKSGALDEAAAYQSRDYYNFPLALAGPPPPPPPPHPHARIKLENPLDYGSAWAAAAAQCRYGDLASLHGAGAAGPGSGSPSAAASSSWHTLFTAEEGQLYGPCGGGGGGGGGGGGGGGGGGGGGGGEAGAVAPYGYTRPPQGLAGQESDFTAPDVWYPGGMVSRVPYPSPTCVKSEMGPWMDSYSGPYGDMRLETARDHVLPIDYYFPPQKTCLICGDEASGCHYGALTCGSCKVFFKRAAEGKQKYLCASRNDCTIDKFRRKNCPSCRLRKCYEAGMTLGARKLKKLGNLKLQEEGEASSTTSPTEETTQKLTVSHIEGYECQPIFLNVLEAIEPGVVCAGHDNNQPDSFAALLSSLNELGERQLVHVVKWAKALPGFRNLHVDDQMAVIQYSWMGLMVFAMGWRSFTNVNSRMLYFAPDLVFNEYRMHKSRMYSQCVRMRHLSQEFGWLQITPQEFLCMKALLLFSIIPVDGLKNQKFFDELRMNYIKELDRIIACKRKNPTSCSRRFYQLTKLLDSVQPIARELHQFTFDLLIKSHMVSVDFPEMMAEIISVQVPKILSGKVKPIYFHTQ
Chain of Protein cereblon/Androgen receptor (Homo sapiens), P10275+Q96SW2 [UNDEFINED MUTATION] (Q96SW2 whole entry, looked up, stated change not applied, canonical isoform): as the sequence (Q96SW2 whole entry, looked up) above
T2 sequence (P10275 whole entry, looked up): as the sequence (P10275 whole entry, looked up, stated change not applied, canonical isoform) above
T2 sequence (Q96SW2 whole entry, looked up): as the sequence (Q96SW2 whole entry, looked up) above
Chain of Protein cereblon/Zinc finger protein Aiolos (Homo sapiens) (Q96SW2 whole entry, looked up): as above
Chain of Protein cereblon/Zinc finger protein Aiolos (Homo sapiens) (Q9UKT9 whole entry, looked up): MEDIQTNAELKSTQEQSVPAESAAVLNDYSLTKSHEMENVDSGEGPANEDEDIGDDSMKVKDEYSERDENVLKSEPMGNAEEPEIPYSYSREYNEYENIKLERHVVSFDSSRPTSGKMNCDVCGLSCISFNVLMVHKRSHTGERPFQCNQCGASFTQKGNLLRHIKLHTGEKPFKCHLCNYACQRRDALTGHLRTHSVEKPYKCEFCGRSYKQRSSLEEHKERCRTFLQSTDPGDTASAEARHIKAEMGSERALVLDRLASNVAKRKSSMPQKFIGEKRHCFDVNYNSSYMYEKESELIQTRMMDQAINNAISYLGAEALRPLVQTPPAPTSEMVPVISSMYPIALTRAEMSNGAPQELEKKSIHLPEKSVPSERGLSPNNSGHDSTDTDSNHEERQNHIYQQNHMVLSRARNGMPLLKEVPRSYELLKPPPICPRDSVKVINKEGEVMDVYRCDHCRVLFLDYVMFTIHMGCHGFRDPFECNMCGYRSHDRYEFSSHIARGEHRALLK
Chain of Protein cereblon/Zinc finger protein Helios (Homo sapiens) (Q96SW2 whole entry, looked up): as the sequence (Q96SW2 whole entry, looked up) above
Chain of Protein cereblon/Zinc finger protein Helios (Homo sapiens) (Q9UKS7 whole entry, looked up): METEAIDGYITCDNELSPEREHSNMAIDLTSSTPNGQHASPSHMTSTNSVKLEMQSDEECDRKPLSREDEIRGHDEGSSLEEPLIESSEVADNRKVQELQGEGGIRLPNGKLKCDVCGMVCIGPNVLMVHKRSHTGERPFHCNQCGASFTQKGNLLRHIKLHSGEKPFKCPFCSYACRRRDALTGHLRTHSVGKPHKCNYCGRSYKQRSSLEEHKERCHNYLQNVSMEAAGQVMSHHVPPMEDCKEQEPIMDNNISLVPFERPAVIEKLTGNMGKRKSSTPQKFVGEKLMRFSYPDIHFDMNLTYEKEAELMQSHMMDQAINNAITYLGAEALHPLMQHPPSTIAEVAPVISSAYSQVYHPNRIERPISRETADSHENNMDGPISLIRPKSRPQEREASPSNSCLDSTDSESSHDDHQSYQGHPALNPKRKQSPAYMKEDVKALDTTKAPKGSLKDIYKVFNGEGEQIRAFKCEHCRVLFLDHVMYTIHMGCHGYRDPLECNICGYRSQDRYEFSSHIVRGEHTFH

Q: With COc1ccc(C(C)(C)c2cc(Cl)c(OCC3CCN(C(=O)CCCCCNc4ccc5c(c4)C(=O)N(C4CCC(=O)NC4=O)C5=O)CC3)c(C#N)c2)cc1 (stereo unspecified) as the compound, how does the Activity [1] read?
A: Its Activity is 98.4%.

Q: What about the Activity [2] of the same compound?
A: The Activity was “inactive”.

Q: And the Activity [3]?
A: The Activity was “inactive”.

Q: What about the Activity [4] of the same compound?
A: Its Activity is 98.6%.

Q: What about the Activity [5] of the same compound?
A: Its Activity is “Time-dependent-effect”.

Q: And the Activity [6]?
A: The Activity was “inactive”.

Q: And the “Ratio IC50” value [7]?
A: The value was 588.

Q: What about the Activity [8] of the same compound?
A: Its Activity is “inactive”.

Q: And the Activity [9]?
A: The Activity was “Active”.

Q: And the Activity [10]?
A: The Activity was 84.1%.

Q: And the Activity [11]?
A: Its Activity is “Active”.

Q: And the Activity [12]?
A: The Activity was 56.1%.

Q: What about the Activity [13] of the same compound?
A: Its Activity is “Active”.

Q: And the Activity [14]?
A: Its Activity is “Dose-dependent-effect”.

Q: And the Activity [15]?
A: The Activity was 89.4%.

Q: What about the Activity [16] of the same compound?
A: The Activity was 98.1%.

Q: What about the Activity [17] of the same compound?
A: The Activity was 21.8%.

Q: What about the Activity [18] of the same compound?
A: Its Activity is “inactive”.

Q: What about the Cmax [19] of the same compound?
A: Its Cmax is 1120 ng/mL.

Q: What about the IC50 (LNCaP) of the same compound?
A: Its IC50 is 2.8 nM.

Q: What about the Activity [20] of the same compound?
A: The Activity was “inactive”.

Q: And the Activity [21]?
A: The Activity was 93.4%.

Q: And the Activity [22]?
A: The Activity was “inactive”.

Q: And the “Ratio IC50” value [23]?
A: The value was 315.

Q: And the Cmax [24]?
A: Its Cmax is 206 ng/mL.

Q: And the Activity [25]?
A: Its Activity is “inactive”.

Q: What about the Activity (CWR22R [26]) of the same compound?
A: Its Activity is 58.9%.

Q: What about the Activity (CWR22R [27]) of the same compound?
A: The Activity was “Minimal_effect”.

Q: And the Activity [28]?
A: The Activity was “inactive”.

Q: And the Activity [29]?
A: Its Activity is “inactive”.

Q: What about the Activity (22Rv1) of the same compound?
A: Its Activity is “inactive”.
